From US20230233567A1, “BELVARAFENIB FOR USE IN CANCER TREATMENT” (Hanmi Pharm. Co., Ltd., priority 2020, published 2023)
Values joined by “and” are separate entries in the source; they are usually repeats but may differ in a detail not shown here. Equal values may be shown once.

How the values were obtained:
B-CPAP (BRAF^V600E) = assay: In vitro cell growth inhibition, thyroid cancer; format: cell-based; conditions: Homo sapiens, BCPAP
RAF-1 (CRAF) Y340D Y341D = RAF-1 (CRAF) Y340D Y341D (Homo sapiens, UniProt P04049, Y340D/Y341D); assay: In vitro kinase assay; format: biochemical
Protocol: (§1) The in vitro kinase inhibitory selectivity and activity of belvarafenib were evaluated in a kinase panel assay against 189 kinases and a subsequent confirmatory assay against selected kinases by using Z′-Lyte® biochemical assay, Lantha® binding assay and Adapter® assay.

DDR2 = molecular target: T1, DDR2 (Homo sapiens, UniProt Q16832); assay: In vitro kinase assay; format: biochemical
T1 sequence (Q16832 22-855): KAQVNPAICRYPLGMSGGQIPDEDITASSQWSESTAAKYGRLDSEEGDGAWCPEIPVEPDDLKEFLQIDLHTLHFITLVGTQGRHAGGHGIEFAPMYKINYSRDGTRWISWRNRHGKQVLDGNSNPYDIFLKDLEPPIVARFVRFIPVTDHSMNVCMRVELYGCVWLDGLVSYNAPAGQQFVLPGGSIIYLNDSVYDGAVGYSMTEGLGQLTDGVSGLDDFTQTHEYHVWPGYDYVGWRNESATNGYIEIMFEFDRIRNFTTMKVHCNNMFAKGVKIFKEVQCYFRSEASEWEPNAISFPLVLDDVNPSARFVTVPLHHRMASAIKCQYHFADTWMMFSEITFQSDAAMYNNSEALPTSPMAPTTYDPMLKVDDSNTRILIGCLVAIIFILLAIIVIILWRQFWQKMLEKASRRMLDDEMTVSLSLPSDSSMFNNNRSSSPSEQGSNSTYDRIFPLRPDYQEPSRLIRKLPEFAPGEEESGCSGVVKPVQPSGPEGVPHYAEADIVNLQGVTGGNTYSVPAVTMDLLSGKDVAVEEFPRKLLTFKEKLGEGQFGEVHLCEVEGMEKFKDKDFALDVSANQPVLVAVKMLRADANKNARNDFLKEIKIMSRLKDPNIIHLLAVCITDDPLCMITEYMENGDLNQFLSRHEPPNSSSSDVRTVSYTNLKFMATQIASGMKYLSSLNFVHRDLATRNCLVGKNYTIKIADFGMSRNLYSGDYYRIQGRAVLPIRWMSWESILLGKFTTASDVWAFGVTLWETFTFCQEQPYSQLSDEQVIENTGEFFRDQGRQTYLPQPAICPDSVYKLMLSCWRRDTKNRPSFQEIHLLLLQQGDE
Protocol: as §1

DDR1 = DDR1 (Homo sapiens, UniProt Q08345); assay: In vitro kinase assay; format: biochemical
Protocol: as §1

CSF1R (FMS) = CSF1R (FMS) (Homo sapiens, UniProt P07333); assay: In vitro kinase assay; format: biochemical
Protocol: as §1

BRAF^V599E = BRAF^V599E (Homo sapiens, UniProt P15056, V600E); assay: In vitro kinase assay; format: biochemical; conditions: read-out: inhibition of enzymatic activity, BRAF^V599E
Protocol: as §1

[1] = tested on: HT-29 CRC cell line harboring BRAF^V600E mutation; assay: In vivo antitumor activity, HT-29 xenograft; set-up: species or system mice
Protocol: In vivo antitumor activity of belvarafenib was investigated in an experiment in a mice model xenografted with a HT-29 CRC cell line harboring BRAF^V600E mutation. Five animals per group were treated with vehicle (control) and belvarafenib at a dose of 30 mg/kg once daily via oral gavage up to day 21.

ARO (BRAF^V600E) = assay: In vitro cell growth inhibition, thyroid cancer; format: cell-based
[2] = tested on: NRAS^G13D mutant K1735 syngeneic mouse melanoma model; assay: In vivo antitumor activity, K1735 syngeneic model
Protocol: In vivo antitumor activity of belvarafenib was investigated in NRAS^G13D mutant K1735 syngeneic mouse melanoma model. Seven animals per group were treated with vehicle (control) and with belvarafenib at a dose of 7.5 or 15 mg/kg once daily via oral gavage.

[3] = tested on: Calu-6 NSCLC cell line harboring KRAS^Q61K mutation; assay: In vivo antitumor activity, Calu-6 xenograft; set-up: species or system mice; conditions: for Maximum inhibition rate: 17 days
Protocol: In vivo antitumor activity of belvarafenib was investigated in an experiment in a mice model xenografted within a Calu-6 NSCLC cell line harboring KRAS^Q61K mutation. Five animals per group were treated with vehicle (control) and belvarafenib at a dose of 3, 10, or 30 mg/kg once daily via oral gavage for 17 days.

BRAF^V600E = BRAF^V600E (Homo sapiens, UniProt P15056, V600E); assay: RAF inhibition Ki; format: biochemical
Protocol: (§2) Belvarafenib was evaluated to measure the inhibition capability of RAF monomers and dimers. In Table 12: “A375” refers to the A375 a human melanoma cell line bearing a BRAF^V600E mutation; “IPC298” refers to the IPC298 cutaneous melanoma cell line bearing an NRAS^Q61L mutation; “A549” refers to the A549 lung adenocarcinoma cell line baring a KRAS mutation; “CSFR1” refers to the CSFR1 gene; “DDR1” refers to discoidin domain receptors DDR1; and “DDR2” refers to discoidin domain receptors DDR2. In Table 13: “% P/T−MEK” refers to the ratio of P-MEK and total MEK; “Conc 1” refers to an inhibitor first (lowest) concentration; “Conc 2” refers to an inhibitor second (intermediate) concentration; and “Conc 3” refers to an inhibitor third (highest) concentration. In Table 13, LXH254 refers to a drug having CAS No.: 1800398-38-2 and the following structure: […]

BRAF = BRAF (Homo sapiens, UniProt P15056); assay: RAF inhibition Ki; format: biochemical
Protocol: as §2

CRAF = CRAF (Homo sapiens, UniProt P04049, Y340D/Y341D); assay: RAF inhibition Ki; format: biochemical
Protocol: as §2

Chain of DDR1 (Q08345 19-913): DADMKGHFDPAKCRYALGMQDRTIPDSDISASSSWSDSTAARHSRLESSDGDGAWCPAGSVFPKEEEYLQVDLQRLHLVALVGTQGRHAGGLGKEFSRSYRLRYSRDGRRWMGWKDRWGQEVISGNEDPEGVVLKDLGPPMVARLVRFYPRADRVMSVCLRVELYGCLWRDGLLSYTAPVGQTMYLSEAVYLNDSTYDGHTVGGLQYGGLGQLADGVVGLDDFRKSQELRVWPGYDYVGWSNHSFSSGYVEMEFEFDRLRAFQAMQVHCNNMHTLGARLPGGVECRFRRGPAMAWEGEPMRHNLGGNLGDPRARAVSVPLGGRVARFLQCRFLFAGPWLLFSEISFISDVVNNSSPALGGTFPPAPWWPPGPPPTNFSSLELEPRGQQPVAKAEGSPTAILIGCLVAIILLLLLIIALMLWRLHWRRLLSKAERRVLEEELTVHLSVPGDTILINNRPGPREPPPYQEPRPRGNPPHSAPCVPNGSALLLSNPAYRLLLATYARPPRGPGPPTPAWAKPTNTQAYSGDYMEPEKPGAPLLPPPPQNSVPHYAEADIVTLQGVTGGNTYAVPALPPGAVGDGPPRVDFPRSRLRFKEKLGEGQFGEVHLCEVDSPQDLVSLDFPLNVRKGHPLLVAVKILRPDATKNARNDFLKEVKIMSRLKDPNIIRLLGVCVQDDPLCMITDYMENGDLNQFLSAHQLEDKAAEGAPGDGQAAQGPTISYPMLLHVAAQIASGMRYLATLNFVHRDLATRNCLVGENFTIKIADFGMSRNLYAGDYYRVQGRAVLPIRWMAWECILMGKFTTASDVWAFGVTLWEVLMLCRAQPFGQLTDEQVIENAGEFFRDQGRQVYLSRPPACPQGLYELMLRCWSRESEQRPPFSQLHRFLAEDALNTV
Chain of CSF1R (FMS) (P07333 20-972): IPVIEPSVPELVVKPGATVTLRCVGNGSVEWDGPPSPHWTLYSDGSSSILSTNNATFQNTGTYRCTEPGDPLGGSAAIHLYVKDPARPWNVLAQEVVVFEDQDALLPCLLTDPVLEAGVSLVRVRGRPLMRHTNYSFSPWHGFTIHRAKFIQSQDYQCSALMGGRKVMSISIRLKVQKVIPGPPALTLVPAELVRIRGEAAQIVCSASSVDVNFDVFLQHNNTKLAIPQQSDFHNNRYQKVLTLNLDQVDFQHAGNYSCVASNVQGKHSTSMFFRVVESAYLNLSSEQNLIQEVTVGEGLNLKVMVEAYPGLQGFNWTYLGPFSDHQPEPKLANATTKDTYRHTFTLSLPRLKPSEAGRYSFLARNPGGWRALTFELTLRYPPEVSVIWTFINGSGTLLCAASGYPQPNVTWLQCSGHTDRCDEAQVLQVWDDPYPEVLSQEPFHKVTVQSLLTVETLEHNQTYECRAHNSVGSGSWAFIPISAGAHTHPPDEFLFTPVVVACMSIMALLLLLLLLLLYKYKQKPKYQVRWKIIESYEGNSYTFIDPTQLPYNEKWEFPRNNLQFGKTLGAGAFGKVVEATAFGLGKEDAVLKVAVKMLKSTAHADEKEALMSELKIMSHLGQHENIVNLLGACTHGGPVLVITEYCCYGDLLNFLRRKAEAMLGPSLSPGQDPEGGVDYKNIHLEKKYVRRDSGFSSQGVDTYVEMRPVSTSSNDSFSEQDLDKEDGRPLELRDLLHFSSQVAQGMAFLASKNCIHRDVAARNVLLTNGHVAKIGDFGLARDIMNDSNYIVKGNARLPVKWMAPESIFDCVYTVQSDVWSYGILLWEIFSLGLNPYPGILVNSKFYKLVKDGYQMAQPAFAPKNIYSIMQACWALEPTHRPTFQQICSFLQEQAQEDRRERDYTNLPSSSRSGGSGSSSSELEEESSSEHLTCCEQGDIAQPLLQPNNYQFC
Chain of RAF-1 (CRAF) Y340D Y341D (P04049 whole entry Y340D/Y341D): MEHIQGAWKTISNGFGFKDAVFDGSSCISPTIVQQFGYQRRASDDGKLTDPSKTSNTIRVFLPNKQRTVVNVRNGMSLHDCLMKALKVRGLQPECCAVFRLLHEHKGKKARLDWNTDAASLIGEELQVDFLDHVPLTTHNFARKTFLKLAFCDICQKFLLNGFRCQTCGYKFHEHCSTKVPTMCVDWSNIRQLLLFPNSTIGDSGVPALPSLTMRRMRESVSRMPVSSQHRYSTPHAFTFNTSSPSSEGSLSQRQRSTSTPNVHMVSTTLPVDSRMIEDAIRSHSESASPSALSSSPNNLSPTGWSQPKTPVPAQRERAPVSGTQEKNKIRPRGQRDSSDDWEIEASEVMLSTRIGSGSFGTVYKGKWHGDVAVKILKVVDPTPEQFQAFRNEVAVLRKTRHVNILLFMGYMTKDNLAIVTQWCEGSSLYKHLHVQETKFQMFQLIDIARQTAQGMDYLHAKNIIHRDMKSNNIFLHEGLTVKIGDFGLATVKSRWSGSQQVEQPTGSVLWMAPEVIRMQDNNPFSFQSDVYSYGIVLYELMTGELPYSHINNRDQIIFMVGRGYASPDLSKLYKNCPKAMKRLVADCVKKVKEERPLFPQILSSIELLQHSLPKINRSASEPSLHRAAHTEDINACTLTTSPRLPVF
Chain of CRAF (P04049 306-648 Y340D/Y341D): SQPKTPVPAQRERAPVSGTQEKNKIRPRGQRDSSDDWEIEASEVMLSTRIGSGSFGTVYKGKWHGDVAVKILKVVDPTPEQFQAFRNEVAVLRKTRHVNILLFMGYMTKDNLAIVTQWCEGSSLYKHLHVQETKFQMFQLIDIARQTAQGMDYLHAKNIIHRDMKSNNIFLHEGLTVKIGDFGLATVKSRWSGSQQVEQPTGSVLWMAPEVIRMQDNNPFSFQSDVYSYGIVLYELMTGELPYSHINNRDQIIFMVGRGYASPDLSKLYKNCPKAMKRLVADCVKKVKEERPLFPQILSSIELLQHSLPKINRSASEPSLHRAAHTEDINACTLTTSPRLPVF
Chain of BRAF^V599E (P15056 416-766 V600E limits assumed): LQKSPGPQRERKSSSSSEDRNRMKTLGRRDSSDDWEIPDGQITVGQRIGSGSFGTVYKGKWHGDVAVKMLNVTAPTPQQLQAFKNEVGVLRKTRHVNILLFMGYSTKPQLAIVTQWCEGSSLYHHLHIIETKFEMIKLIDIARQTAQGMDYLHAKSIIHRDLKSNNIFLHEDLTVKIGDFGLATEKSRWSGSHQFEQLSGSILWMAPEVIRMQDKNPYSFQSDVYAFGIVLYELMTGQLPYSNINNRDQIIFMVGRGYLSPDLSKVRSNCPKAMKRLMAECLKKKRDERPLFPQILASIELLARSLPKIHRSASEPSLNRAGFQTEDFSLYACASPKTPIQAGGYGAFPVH
Chain of BRAF (P15056 whole entry): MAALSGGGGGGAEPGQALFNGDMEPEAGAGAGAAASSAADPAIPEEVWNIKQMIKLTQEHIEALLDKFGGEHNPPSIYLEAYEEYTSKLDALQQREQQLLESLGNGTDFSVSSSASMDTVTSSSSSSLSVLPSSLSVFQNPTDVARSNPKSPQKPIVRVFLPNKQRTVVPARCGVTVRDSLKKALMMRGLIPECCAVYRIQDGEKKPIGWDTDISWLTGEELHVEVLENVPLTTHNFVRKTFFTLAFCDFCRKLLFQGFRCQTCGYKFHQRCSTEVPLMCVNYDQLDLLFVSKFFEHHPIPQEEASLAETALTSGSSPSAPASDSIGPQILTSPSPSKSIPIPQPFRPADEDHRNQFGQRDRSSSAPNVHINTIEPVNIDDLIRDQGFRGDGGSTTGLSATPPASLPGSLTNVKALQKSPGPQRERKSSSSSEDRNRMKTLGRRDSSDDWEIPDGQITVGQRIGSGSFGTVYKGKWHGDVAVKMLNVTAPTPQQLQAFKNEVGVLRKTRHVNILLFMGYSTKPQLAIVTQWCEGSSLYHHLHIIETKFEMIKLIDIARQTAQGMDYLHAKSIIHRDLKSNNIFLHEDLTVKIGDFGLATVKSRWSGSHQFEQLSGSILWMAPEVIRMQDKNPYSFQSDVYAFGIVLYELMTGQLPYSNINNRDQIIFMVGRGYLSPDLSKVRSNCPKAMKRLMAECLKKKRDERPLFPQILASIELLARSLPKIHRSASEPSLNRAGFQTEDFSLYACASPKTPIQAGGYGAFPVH
Chain of BRAF^V600E (P15056 whole entry V600E, the tested form may be a part): as the sequence (P15056 whole entry) above, with V600E counted along it

Compound: Cc1ccc2c(Nc3cccc(Cl)c3F)nccc2c1NC(=O)c1csc2c(N)ncnc12 [Belvarafenib]
- GI50 (B-CPAP (BRAF^V600E)): 43 nM
- inhibition at 1 µM (RAF-1 (CRAF) Y340D Y341D; at 1 μM, read-out: inhibition of enzymatic activity, RAF-1 (CRAF) Y340D Y341D): > 90%
- IC50 (RAF-1 (CRAF) Y340D Y341D; confirmatory assay): 2 nM
- inhibition at 1 µM (DDR2; at 1 μM, read-out: inhibition of enzymatic activity, DDR2): > 90%
- IC50 (DDR2; confirmatory assay): 182 nM
- inhibition at 1 µM (DDR1; at 1 μM, read-out: inhibition of enzymatic activity, DDR1): > 90%
- IC50 (DDR1; confirmatory assay): 77 nM
- inhibition at 1 µM (CSF1R (FMS); at 1 μM, read-out: inhibition of enzymatic activity, CSF1R (FMS)): > 90%
- IC50 (CSF1R (FMS); confirmatory assay): 44 nM
- inhibition at 1 µM (BRAF^V599E): > 90%
- Day for maximum inhibition ([1]; 30 mg/kg): 22 and 21
- Maximum weight loss ([1]; 30 mg/kg): 2.4%
- Maximum inhibition rate ([1]; 30 mg/kg once daily oral, 21 days): 59.8%
- GI50 (ARO (BRAF^V600E)): 719 nM
- Day for maximum inhibition ([2]; 15 mg/kg): 22
- Maximum weight loss ([2]; 15 mg/kg): 2.2%
- Maximum inhibition rate ([2]; 15 mg/kg once daily oral gavage, 3 weeks): 54.7%
- Day for maximum inhibition ([3]; 3 mg/kg): 18
- Maximum weight loss ([3]; 3 mg/kg): 2.5%
- Maximum inhibition rate ([3]; 3 mg/kg q.d. oral): 53.5%
- Day for maximum inhibition ([3]; 10 mg/kg): 15
- Maximum weight loss ([3]; 10 mg/kg): 3.0%
- Maximum inhibition rate ([3]; 10 mg/kg q.d. oral): 79.3%
- Day for maximum inhibition ([3]; 30 mg/kg): 12
- Maximum weight loss ([3]; 30 mg/kg): 1.1%
- Maximum inhibition rate ([3]; 30 mg/kg q.d. oral): 86.3%
- Ki (BRAF^V600E): 2 nM
- Ki (BRAF): 41 nM
- Ki (CRAF): 2 nM
